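48-hour exposure; five concentrations; linearly interpolated endpoints. The concentration for 50% growth inhibition is given as GI50. TGI marks complete inhibition of growth.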
Experiments:
Experiment in all cases: growth of human tumour cells (NCI), 48 h
A549 NSCLC = system: A549 NSCLC
ACHN renal = system: ACHN renal
BT-549 breast = system: BT-549 breast
CAKI-1 renal = system: CAKI-1 renal
CCRF-CEM leukemia = system: CCRF-CEM leukemia
COLO 205 colon = system: COLO 205 colon
DU-145 prostate = system: DU-145 prostate
EKVX NSCLC = system: EKVX NSCLC
HCC-2998 colon = system: HCC-2998 colon
HCT-15 colon = system: HCT-15 colon
HOP-62 NSCLC = system: HOP-62 NSCLC
HS 578T breast = system: HS 578T breast
HT29 colon = system: HT29 colon
IGROV1 ovarian = system: IGROV1 ovarian
K-562 leukemia = system: K-562 leukemia
KM12 colon = system: KM12 colon
MCF7 breast = system: MCF7 breast
MDA-MB-231 breast = system: MDA-MB-231 breast
MOLT-4 leukemia = system: MOLT-4 leukemia
NCI-H226 lung = system: NCI-H226 lung
NCI-H460 lung = system: NCI-H460 lung
OVCAR-3 ovarian = system: OVCAR-3 ovarian
OVCAR-4 ovarian = system: OVCAR-4 ovarian
OVCAR-5 ovarian = system: OVCAR-5 ovarian
OVCAR-8 ovarian = system: OVCAR-8 ovarian
PC-3 prostate = system: PC-3 prostate
RPMI-8226 leukemia = system: RPMI-8226 leukemia
SF-295 CNS = system: SF-295 CNS
SK-MEL-28 melanoma = system: SK-MEL-28 melanoma
SK-MEL-5 melanoma = system: SK-MEL-5 melanoma
SK-OV-3 ovarian = system: SK-OV-3 ovarian
SN12C renal = system: SN12C renal
SNB-19 CNS = system: SNB-19 CNS
SNB-75 CNS = system: SNB-75 CNS
SR leukemia = system: SR leukemia
SW-620 colon = system: SW-620 colon
T-47D breast = system: T-47D breast
TK-10 renal = system: TK-10 renal
U251 CNS = system: U251 CNS
UO-31 renal = system: UO-31 renal
HL-60(TB) leukemia = system: HL-60(TB) leukemia
M14 melanoma = system: M14 melanoma
NCI/ADR-RES ovarian = system: NCI/ADR-RES ovarian
SF-268 CNS = system: SF-268 CNS
UACC-257 melanoma = system: UACC-257 melanoma
UACC-62 melanoma = system: UACC-62 melanoma
NCI-H23 lung = system: NCI-H23 lung

SMILES: CC1(C)C[C@H]2C=C(C=O)[C@]34C[C@]3(C(=O)OC4O)[C@H]2C1 (stereo partly specified)
- TGI (A549 NSCLC): 13.1 µM
- TGI (ACHN renal): 8.07 µM
- TGI (BT-549 breast): 4.56 µM
- TGI (CAKI-1 renal): 5.04 µM
- TGI (CCRF-CEM leukemia): > 100 µM
- TGI (COLO 205 colon): 1.44 µM
- TGI (DU-145 prostate): 16.5 µM
- TGI (EKVX NSCLC): 4.34 µM
- TGI (HCC-2998 colon): 12.3 µM
- TGI (HCT-15 colon): 4.7 µM
- TGI (HOP-62 NSCLC): 45.1 µM
- TGI (HS 578T breast): > 100 µM
- TGI (HT29 colon): 4.96 µM
- TGI (IGROV1 ovarian): 9.75 µM
- TGI (K-562 leukemia): > 100 µM
- TGI (KM12 colon): 5.6 µM
- TGI (MCF7 breast): 5.54 µM
- TGI (MDA-MB-231 breast): 6.47 µM
- TGI (MOLT-4 leukemia): > 100 µM
- TGI (NCI-H226 lung): 26.9 µM
- TGI (NCI-H460 lung): 53.4 µM
- TGI (OVCAR-3 ovarian): 8.47 µM
- TGI (OVCAR-4 ovarian): 7.86 µM
- TGI (OVCAR-5 ovarian): 5.14 µM
- TGI (OVCAR-8 ovarian): 3.67 µM
- TGI (PC-3 prostate): 8.74 µM
- TGI (RPMI-8226 leukemia): > 100 µM
- TGI (SF-295 CNS): 23.9 µM
- TGI (SK-MEL-28 melanoma): 9.4 µM
- TGI (SK-MEL-5 melanoma): 9.32 µM
- TGI (SK-OV-3 ovarian): 50.3 µM
- TGI (SN12C renal): > 100 µM
- TGI (SNB-19 CNS): > 100 µM
- TGI (SNB-75 CNS): 6.87 µM
- TGI (SR leukemia): > 100 µM
- TGI (SW-620 colon): > 100 µM
- TGI (T-47D breast): 4.63 µM
- TGI (TK-10 renal): 4.53 µM
- TGI (U251 CNS): 51.7 µM
- TGI (UO-31 renal): 6.92 µM

SMILES: CCOC(=O)c1cc(C(=O)c2cc(OC)cc(OC)c2)n2ncc3ccccc3c12
- GI50 (BT-549 breast): 1.18 µM
- TGI (BT-549 breast): > 100 µM
- GI50 (HCT-15 colon): 0.484 µM
- TGI (HCT-15 colon): > 100 µM
- GI50 (HL-60(TB) leukemia): 0.82 µM
- TGI (HL-60(TB) leukemia): > 100 µM
- GI50 (HS 578T breast): 1.84 µM
- TGI (HS 578T breast): > 100 µM
- GI50 (M14 melanoma): 0.485 µM
- TGI (M14 melanoma): > 100 µM
- GI50 (MCF7 breast): 0.41 µM
- TGI (MCF7 breast): > 100 µM
- GI50 (NCI/ADR-RES ovarian): 0.476 µM
- TGI (NCI/ADR-RES ovarian): > 100 µM
- GI50 (PC-3 prostate): 0.839 µM
- TGI (PC-3 prostate): > 100 µM
- GI50 (SF-268 CNS): 1.59 µM
- TGI (SF-268 CNS): > 100 µM
- GI50 (SF-295 CNS): 0.483 µM
- TGI (SF-295 CNS): > 100 µM
- GI50 (SK-MEL-5 melanoma): 0.623 µM
- TGI (SK-MEL-5 melanoma): > 100 µM
- GI50 (SNB-19 CNS): 1.57 µM
- TGI (SNB-19 CNS): > 100 µM
- GI50 (SR leukemia): 0.442 µM
- TGI (SR leukemia): > 100 µM
- GI50 (UACC-257 melanoma): > 100 µM
- TGI (UACC-257 melanoma): > 100 µM
- GI50 (UACC-62 melanoma): 0.692 µM
- TGI (UACC-62 melanoma): > 100 µM

SMILES: COc1cc2nc(N3CCN(C(=O)c4ccco4)CC3)nc(N)c2cc1OC
- TGI (NCI-H23 lung): 27.1 µM

From PubChem BioAssay (NCI)
